In US20240158385A1, “NOVEL COMPOUNDS” (Cerevance, Inc., priority 2021, published 2024):

Target: T1, human KCNK13 (Homo sapiens, UniProt Q9HB14)
T1 construct: expressed in transfected cells
T1 sequence (Q9HB14 1-408): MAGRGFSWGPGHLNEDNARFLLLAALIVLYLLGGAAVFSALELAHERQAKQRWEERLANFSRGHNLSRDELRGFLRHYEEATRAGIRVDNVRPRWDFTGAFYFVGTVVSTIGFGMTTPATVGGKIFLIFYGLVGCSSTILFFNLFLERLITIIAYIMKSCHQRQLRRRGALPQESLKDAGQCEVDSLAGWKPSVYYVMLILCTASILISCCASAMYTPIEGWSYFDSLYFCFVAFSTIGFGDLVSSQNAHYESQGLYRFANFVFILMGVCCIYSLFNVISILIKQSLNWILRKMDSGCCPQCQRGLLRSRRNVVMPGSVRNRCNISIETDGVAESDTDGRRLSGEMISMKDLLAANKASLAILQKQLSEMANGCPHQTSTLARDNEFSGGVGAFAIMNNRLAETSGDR
Experiment: KCNK13 antagonist activity, thallium (Tl+) flux FLIPR assay
Assay type: cell-based
Details: HEK 293 cells stably expressing human KCNK13; Tl+ sensitive dye, FLIPR; compounds 15 minutes prior to thallium sulfate; 10 point half log curves from 10 PM; read-out: hKCNK13 IC50
In short: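 HEK 293 cells stably expressing human KCNK13 loaded with Tl+-sensitive dye for 1 h at room temperature. Compounds (10-point half-log curves) preincubated 15 min before thallium sulfate stimulus, fluorescence tracked by FLIPR. IC50 from ten-point curves, each point the mean of two wells.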

Row | SMILES | IC50 [nM]
1 | Cc1cn(C)nc1-c1nc2ccccc2n1Cc1cccnc1 [Example 113, 2-(1,4-dimethylpyrazol-3-yl)-1-(pyridin-3-ylmethyl)benzimidazole] | < 500
2 | Cn1nccc1-c1nc2ccccc2n1Cc1cccnc1 [Example 114, 2-(1-methylpyrazol-5-yl)-1-(pyridin-3-ylmethyl)benzimidazole] | < 1000
3 | Nc1nonc1-c1nc2ccccc2n1Cc1ccccn1 [Example 115, 4-[1-(pyridin-2-ylmethyl)benzimidazol-2-yl]-1,2,5-oxadiazol-3-amine] | < 1000
4 | CCc1nonc1-c1nc2ccccc2n1Cc1cccnc1 [Example 116, 3-ethyl-4-[1-(pyridin-3-ylmethyl)benzimidazol-2-yl]-1,2,5-oxadiazole] | < 1000
5 | c1coc(-c2nc3ccccc3n2Cc2ccncc2)c1 [Example 117, 2-(furan-2-yl)-1-(pyridin-4-ylmethyl)benzimidazole] | < 1000
6 | Cc1nsnc1-c1nc2c(F)cccc2n1Cc1cccnn1 [Example 140, 3-(4-fluoro-1-(pyridazin-3-ylmethyl)-benzimidazol-2-yl)-4-methyl-1,2,5-thiadiazole] | < 500
7 | CNc1nsnc1-c1nc2c(F)cccc2n1Cc1cccnn1 [Example 144, 4-(4-fluoro-1-(pyridazin-3-ylmethyl)-benzimidazol-2-yl)-N-methyl-1,2,5-thiadiazol-3-amine] | < 1000
8 | Nc1nonc1-c1nc2cccc(F)c2n1Cc1ccc(O)nn1 [Example 150, 6-((2-(4-amino-1,2,5-oxadiazol-3-yl)-7-fluoro-benzimidazol-1-yl)methyl)pyridazin-3-ol] | < 200

Further lines, results first:

Row | IC50 [nM] | SMILES
9 | < 100 | Brc1nsnc1-c1nc2ccccc2n1Cc1cccnc1 [Example 126, 3-bromo-4-(1-(pyridin-3-ylmethyl)benzimidazol-2-yl)-1,2,5-thiadiazole]
10 | < 100 | Cc1nsnc1-c1nc2ccccc2n1Cc1cccnc1 [Example 127, 3-methyl-4-[1-(pyridin-3-ylmethyl)benzimidazol-2-yl]-1,2,5-thiadiazole]
11 | < 100 | Cc1cnoc1-c1nc2ccccc2n1Cc1cccnc1 [Example 130, 4-methyl-5-[1-(pyridin-3-ylmethyl)benzimidazol-2-yl]isoxazole]
12 | < 100 | Nc1nonc1-c1nc2c(F)cccc2n1Cc1cncnc1 [Example 131, 4-[4-fluoro-1-(pyrimidin-5-ylmethyl)benzimidazol-2-yl]-1,2,5-oxadiazol-3-amine]
13 | < 100 | Nc1nonc1-c1nc2cc(F)cc(F)c2n1Cc1ccncc1 [Example 136, 4-(5,7-difluoro-1-(pyridin-4-ylmethyl)-benzimidazol-2-yl)-1,2,5-oxadiazol-3-amine]
14 | < 100 | Cc1nsnc1-c1nc2cccc(F)c2n1Cc1cccnn1 [Example 139, 3-(7-fluoro-1-(pyridazin-3-ylmethyl)-benzimidazol-2-yl)-4-methyl-1,2,5-thiadiazole]
15 | < 100 | Nc1nonc1-c1nc2cc(F)cc(F)c2n1Cc1cccnn1 [Example 141, 4-(5,7-difluoro-1-(pyridazin-3-ylmethyl)-benzimidazol-2-yl)-1,2,5-oxadiazol-3-amine]
16 | < 200 | Nc1nonc1-c1nc2c(F)cc(F)cc2n1Cc1cccnn1 [Example 142, 4-(4,6-difluoro-1-(pyridazin-3-ylmethyl)-benzimidazol-2-yl)-1,2,5-oxadiazol-3-amine]
17 | < 200 | CNc1nsnc1-c1nc2cccc(F)c2n1Cc1cccnn1 [Example 143, 4-(7-fluoro-1-(pyridazin-3-ylmethyl)-benzimidazol-2-yl)-N-methyl-1,2,5-thiadiazol-3-amine]
18 | < 50 | Nc1nonc1-c1nc2ccc(F)c(F)c2n1Cc1ccncc1 [Example 145, 4-(6,7-difluoro-1-(pyridin-4-ylmethyl)-benzimidazol-2-yl)-1,2,5-oxadiazol-3-amine]
19 | < 50 | Nc1nonc1-c1nc2c(F)ccc(F)c2n1Cc1cccnn1 [Example 154, 4-(4,7-difluoro-1-(pyridazin-3-ylmethyl)-benzimidazol-2-yl)-1,2,5-oxadiazol-3-amine]
